Results published in patent publication US8119692B2 (priority 2007, dated 2012).

Target: Lethal factor protease (Bacillus anthracis, UniProt P15917)
Assay: biochemical
Conditions: LF (FRET) Ki^app

Sequence of Lethal factor protease (P15917 34-809 limits assumed): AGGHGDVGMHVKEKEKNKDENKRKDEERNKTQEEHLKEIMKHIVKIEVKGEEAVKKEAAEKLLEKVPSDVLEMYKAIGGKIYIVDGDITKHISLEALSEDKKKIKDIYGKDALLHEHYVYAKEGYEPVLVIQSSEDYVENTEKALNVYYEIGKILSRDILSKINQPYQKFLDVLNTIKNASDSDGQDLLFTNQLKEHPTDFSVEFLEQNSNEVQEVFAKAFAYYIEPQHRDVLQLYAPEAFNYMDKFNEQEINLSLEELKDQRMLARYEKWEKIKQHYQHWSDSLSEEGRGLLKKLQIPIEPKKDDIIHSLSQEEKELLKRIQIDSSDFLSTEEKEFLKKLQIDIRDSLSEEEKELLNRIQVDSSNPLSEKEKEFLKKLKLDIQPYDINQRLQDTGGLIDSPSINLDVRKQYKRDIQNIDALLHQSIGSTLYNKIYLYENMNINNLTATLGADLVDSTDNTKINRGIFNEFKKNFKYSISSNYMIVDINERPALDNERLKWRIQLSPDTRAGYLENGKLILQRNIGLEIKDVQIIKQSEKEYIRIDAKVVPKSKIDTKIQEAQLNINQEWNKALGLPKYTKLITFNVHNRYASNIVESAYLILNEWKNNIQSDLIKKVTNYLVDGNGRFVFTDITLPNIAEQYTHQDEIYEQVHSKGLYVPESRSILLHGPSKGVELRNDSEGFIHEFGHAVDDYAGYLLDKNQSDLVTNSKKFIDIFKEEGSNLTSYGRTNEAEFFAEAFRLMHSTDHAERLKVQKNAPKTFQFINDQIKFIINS

Structure (SMILES) | Ki [nM]
CO[C@H](C[C@H](CCN(C)Cc1cccc(-c2ccc(F)c(C)c2)c1)C(=O)NO)c1ccc(F)cc1 [Compound 168003, (2S,4R)-2-(2-(((4′-fluoro-3′-methylbiphenyl-3-yl)methyl)(methyl)amino)ethyl)-4-(4-fluorophenyl)-N-hydroxy-4-methoxybutanamide] | 2300
CO[C@H](C[C@H](CCN(C)c1cccc(-c2ccc(F)c(C)c2)c1)C(=O)NO)c1ccc(F)cc1 [Compound 168007, (2S,4R)-2-(2-((4′-fluoro-3′-methylbiphenyl-3-yl)(methyl)amino)ethyl)-4-(4-fluorophenyl)-N-hydroxy-4-methoxybutanamide] | 19500
CO[C@H](C[C@H](CCN(C)c1ccc(Br)cc1)C(=O)NO)c1ccc(F)cc1 [Compound 168013, (2S,4R)-2-(2-((4-bromophenyl)(methyl)amino)ethyl)-4-(4-fluorophenyl)-N-hydroxy-4-methoxybutanamide] | 1800
CO[C@H](C[C@H](CCN(C)Cc1ccc(Br)cc1)C(=O)NO)c1ccc(F)cc1 [Compound 168015] | 2200
CO[C@H](C[C@H](CCN(C)C/C=C/c1ccccc1)C(=O)NO)c1ccc(F)cc1 [Compound 168017, (2S,4R)-2-(2-(cinnamyl(methyl)amino)ethyl)-4-(4-fluorophenyl)-N-hydroxy-4-methoxybutanamide] | 520
CO[C@H](C[C@H](CCN(C)c1ccccc1)C(=O)NO)c1ccc(F)cc1 [Compound 168028, (2S,4R)-4-(4-fluorophenyl)-N-hydroxy-4-methoxy-2-(2-(methyl(phenyl)amino)ethyl)butanamide] | 1820
CO[C@H](C[C@H](CCN(C)Cc1ccc(-c2ccc(F)c(C)c2)cc1)C(=O)NO)c1ccc(F)cc1 [Compound 168037, (2S,4R)-2-(2-(((4′-fluoro-3′-methylbiphenyl-4-yl)methyl)(methyl)amino)ethyl)-4-(4-fluorophenyl)-N-hydroxy-4-methoxybutanamide] | 680
CO[C@H](C[C@H](CCN(C)c1ccc(-c2ccc(F)c(C)c2)cc1)C(=O)NO)c1ccc(F)cc1 [Compound 168038, (2S,4R)-2-(2-((4′-fluoro-3′-methylbiphenyl-4-yl)(methyl)amino)ethyl)-4-(4-fluorophenyl)-N-hydroxy-4-methoxybutanamide] | 910
CO[C@H](C[C@H](CCN1CCC[C@H](CO)C1)C(=O)NO)c1ccc(F)cc1 [Compound 168039, (2S,4R)-4-(4-fluorophenyl)-N-hydroxy-2-(2-((S)-3-(hydroxymethyl)piperidin-1-yl)ethyl)-4-methoxybutanamide] | 580
CO[C@H](C[C@H](CCN1CCC[C@H](CN2CCCCC2)C1)C(=O)NO)c1ccc(F)cc1 [Compound 168044, (2S,4R)-4-(4-fluorophenyl)-N-hydroxy-4-methoxy-2-(2-((R)-3-(piperidin-1-ylmethyl)piperidin-1-yl)ethyl)butanamide] | 1920
CO[C@H](C[C@H](CCN1CCC[C@@H](CN2CCCCC2)C1)C(=O)NO)c1ccc(F)cc1 [Compound 168045, (2S,4R)-4-(4-fluorophenyl)-N-hydroxy-4-methoxy-2-(2-((S)-3-(piperidin-1-ylmethyl)piperidin-1-yl)ethyl)butanamide] | 430
CO[C@H](C[C@H](CCN(C)CCN(C)c1ccccc1)C(=O)NO)c1ccc(F)cc1 [Compound 168058, (2S,4R)-4-(4-fluorophenyl)-N-hydroxy-4-methoxy-2-(2-(methyl(2-(methyl(phenyl)amino)ethyl)amino)ethyl)butanamide] | 780
CO[C@H](C[C@H](CCN1CCC[C@@H](CO)C1)C(=O)NO)c1ccc(F)cc1 [Compound 168059, (2S,4R)-4-(4-fluorophenyl)-N-hydroxy-2-(2-((R)-3-(hydroxymethyl)piperidin-1-yl)ethyl)-4-methoxybutanamide] | 600
CO[C@H](C[C@H](CCN(C)CCN(C)CCCc1ccccc1)C(=O)NO)c1ccc(F)cc1 [Compound 168082, (2S,4R)-4-(4-fluorophenyl)-N-hydroxy-4-methoxy-2-(2-(methyl(2-(methyl(3-phenylpropyl)amino)ethyl)amino)ethyl)butanamide] | 820
CO[C@H](C[C@H](CCCCNCc1ccc(F)c(C)c1)C(=O)NO)c1ccc(F)cc1 [Compound 168136, (S)-6-(4-fluoro-3-methylbenzylamino)-2-((R)-2-(4-fluorophenyl)-2-methoxyethyl)-N-hydroxyhexanamide] | 190
CO[C@H](C[C@H](CCCCN(C)Cc1ccc(F)cc1)C(=O)NO)c1ccc(F)cc1 [Compound 168138] | 390
CO[C@H](C[C@H](CCCCNCCc1ccc(F)cc1)C(=O)NO)c1ccc(F)cc1 [Compound 168221] | 280
CO[C@H](C[C@H](CCCCNCCCc1ccc(F)cc1)C(=O)NO)c1ccc(F)cc1 [Compound 168222, (S)-2-((R)-2-(4-fluorophenyl)-2-methoxyethyl)-6-(3-(4-fluorophenyl)propylamino)-N-hydroxyhexanamide] | 170
CO[C@H](C[C@H](CCCCNCc1cccs1)C(=O)NO)c1ccc(F)cc1 [Compound 168223] | 210
CO[C@H](C[C@H](CCCCNCc1ccc(Oc2ccccc2)cc1)C(=O)NO)c1ccc(F)cc1 [Compound 168224, (S)-2-((R)-2-(4-fluorophenyl)-2-methoxyethyl)-N-hydroxy-6-(4-phenoxybenzylamino)hexanamide] | 230
CO[C@H](C[C@H](CCCCN1CCN(Cc2ccccc2)CC1)C(=O)NO)c1ccc(F)cc1 [Compound 168226, (S)-6-(4-benzylpiperazin-1-yl)-2-((R)-2-(4-fluorophenyl)-2-methoxyethyl)-N-hydroxyhexanamide] | 580
CO[C@H](C[C@H](CCCCNCC1CCCCC1)C(=O)NO)c1ccc(F)cc1 [Compound 168227, (S)-6-(cyclohexylmethylamino)-2-((R)-2-(4-fluorophenyl)-2-methoxyethyl)-N-hydroxyhexanamide] | 690
CO[C@H](C[C@H](CCCCNCc1ccc(C)o1)C(=O)NO)c1ccc(F)cc1 [Compound 168228, (S)-2-((R)-2-(4-fluorophenyl)-2-methoxyethyl)-N-hydroxy-6-((5-methylfuran-2-yl)methylamino)hexanamide] | 2800
CO[C@H](C[C@H](CCCCNc1ccc(F)cc1)C(=O)NO)c1ccc(F)cc1 [Compound 168229] | 2800
CO[C@H](C[C@H](CCCCNCc1cccc(-c2ccc(F)cc2)c1)C(=O)NO)c1ccc(F)cc1 [Compound 168230, (S)-6-((4′-fluorobiphenyl-3-yl)methylamino)-2-((R)-2-(4-fluorophenyl)-2-methoxyethyl)-N-hydroxyhexanamide] | 450
CO[C@H](C[C@H](CCCCNCc1cc2ccccc2s1)C(=O)NO)c1ccc(F)cc1 [Compound 168231, (S)-6-(benzo[b]thiophen-2-ylmethylamino)-2-((R)-2-(4-fluorophenyl)-2-methoxyethyl)-N-hydroxyhexanamide] | 320
